{"source": "paper PMC4206343", "about": "“A Novel Aminothiazole KY-05009 with Potential to Inhibit Traf2- and Nck-Interacting Kinase (TNIK) Attenuates TGF-β1-Mediated Epithelial-to-Mesenchymal Transition in Human Lung Adenocarcinoma A549 Cells” (PLoS ONE, 2014)", "target": "Traf2- and Nck-interacting kinase (TNIK) (Homo sapiens, UniProt Q9UKE5)", "sequence (Q9UKE5 whole entry)": "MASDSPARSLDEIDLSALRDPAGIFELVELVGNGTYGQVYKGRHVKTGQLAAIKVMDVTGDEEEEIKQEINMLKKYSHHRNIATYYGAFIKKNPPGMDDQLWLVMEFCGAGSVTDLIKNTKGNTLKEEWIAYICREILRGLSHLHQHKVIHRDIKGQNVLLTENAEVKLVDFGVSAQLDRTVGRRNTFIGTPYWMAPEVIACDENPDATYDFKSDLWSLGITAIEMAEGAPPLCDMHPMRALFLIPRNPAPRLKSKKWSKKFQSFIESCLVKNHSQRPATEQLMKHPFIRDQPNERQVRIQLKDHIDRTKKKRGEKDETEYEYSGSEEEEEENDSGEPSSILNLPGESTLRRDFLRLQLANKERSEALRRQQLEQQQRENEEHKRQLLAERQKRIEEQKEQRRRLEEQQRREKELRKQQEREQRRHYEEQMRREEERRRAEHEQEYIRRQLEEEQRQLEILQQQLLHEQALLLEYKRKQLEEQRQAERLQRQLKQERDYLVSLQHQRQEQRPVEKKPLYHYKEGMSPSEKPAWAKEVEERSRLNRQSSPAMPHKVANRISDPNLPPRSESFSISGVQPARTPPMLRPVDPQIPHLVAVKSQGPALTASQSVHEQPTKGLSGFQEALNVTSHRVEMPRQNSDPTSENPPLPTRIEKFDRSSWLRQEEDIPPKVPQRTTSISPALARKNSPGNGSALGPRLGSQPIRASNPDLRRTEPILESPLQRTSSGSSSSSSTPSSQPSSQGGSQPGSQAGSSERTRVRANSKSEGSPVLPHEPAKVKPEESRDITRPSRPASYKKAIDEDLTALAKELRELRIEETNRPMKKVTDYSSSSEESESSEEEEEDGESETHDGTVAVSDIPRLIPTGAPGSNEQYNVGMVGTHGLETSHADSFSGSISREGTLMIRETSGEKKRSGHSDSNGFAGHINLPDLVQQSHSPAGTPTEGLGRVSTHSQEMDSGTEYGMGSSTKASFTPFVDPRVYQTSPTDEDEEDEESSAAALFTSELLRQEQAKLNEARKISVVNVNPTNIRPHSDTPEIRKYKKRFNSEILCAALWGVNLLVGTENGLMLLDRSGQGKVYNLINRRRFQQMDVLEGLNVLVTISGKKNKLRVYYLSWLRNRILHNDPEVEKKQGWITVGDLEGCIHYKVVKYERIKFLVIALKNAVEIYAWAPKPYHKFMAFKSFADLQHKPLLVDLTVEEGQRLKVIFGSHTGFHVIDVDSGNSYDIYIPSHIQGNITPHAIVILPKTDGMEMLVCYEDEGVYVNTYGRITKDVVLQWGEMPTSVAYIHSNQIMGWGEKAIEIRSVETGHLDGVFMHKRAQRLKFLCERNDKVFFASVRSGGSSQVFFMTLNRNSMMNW", "assay": "ATP competition binding assay (KdELECT, KINOMEscan), triplicate 11-point dose-response curves", "data": [{"compound": "Cc1ccc(C(=O)Nc2sc(Nc3ccccc3)nc2C(N)=O)cc1", "note": "[KY-05009, 5-(4-methylbenzamido)-2-(phenylamino)thiazole-4-carboxamide]", "values": [{"measurement": "Ki", "value": 100, "unit": "nM"}]}]}
